According to patent US20230085307A1, “PYRIDAZINONE COMPOUND AND HERBICIDE” (NISSAN CHEMICAL CORPORATION, priority 2019, published 2023):

Columns and labels:
[1] = system: redroot pigweed; test: Test Example 5: herbicidal effect by foliage application, plastic box (Table 20, symbol N); assay type: in vivo, redroot pigweed (Amaranthus retroflexus); details: foliage application, 320 g/ha, three weeks after application
In short: (§1)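 Sow seeds spot-wise in sterilized diluvial soil; cover with ~1.5 cm soil. Grow 14 days in greenhouse, 25° C. to 30° C. Spray foliage with emulsion diluted to predetermined amount. Rate effect after 3 weeks.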

[2] = system: chickweed; test: Test Example 5: herbicidal effect by foliage application, plastic box (Table 20, symbol P); assay type: in vivo, common chickweed (Stellaria media); details: foliage application, 320 g/ha, three weeks after application
In short: as §1

[3] = system: Italian ryegrass; test: Test Example 4: herbicidal effect by soil treatment (Table 19, symbol K); assay type: in vivo, Italian ryegrass (Lolium multiflorum); details: amount of applied herbicide 320 g/ha
In short: (§2)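 Applied as a water-diluted emulsion, the compound was sprayed onto soil covering newly sown seeds. Evaluation came three weeks after application, in a greenhouse held at 25° C. to 30° C.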

[4] = system: velvetleaf; test: Test Example 5: herbicidal effect by foliage application, plastic box (Table 20, symbol M); assay type: in vivo, velvetleaf (Abutilon theophrasti); details: foliage application, 320 g/ha, three weeks after application
In short: as §1

[5] = system: wild oat; test: Test Example 5: herbicidal effect by foliage application, plastic box (Table 20, symbol I); assay type: in vivo, wild oat (Avena fatua); details: foliage application, 320 g/ha, three weeks after application
In short: as §1

[6] = system: blackgrass; test: Test Example 4: herbicidal effect by soil treatment (Table 19, symbol J); assay type: in vivo, blackgrass (Alopecurus myosuroides); details: amount of applied herbicide 320 g/ha
In short: as §2

[7] = system: wild oat; test: Test Example 4: herbicidal effect by soil treatment (Table 19, symbol I); assay type: in vivo, wild oat (Avena fatua); details: amount of applied herbicide 320 g/ha
In short: as §2

[8] = system: blackgrass; test: Test Example 5: herbicidal effect by foliage application, plastic box (Table 20, symbol J); assay type: in vivo, blackgrass (Alopecurus myosuroides); details: foliage application, 320 g/ha, three weeks after application
In short: as §1

[9] = system: windgrass; test: Test Example 5: herbicidal effect by foliage application, plastic box (Table 20, symbol L); assay type: in vivo, windgrass (Apera spica-venti); details: foliage application, 320 g/ha, three weeks after application
In short: as §1

[10] = system: green foxtail; test: Test Example 4: herbicidal effect by soil treatment (Table 19, symbol G); assay type: in vivo, green foxtail (Setaria viridis); details: amount of applied herbicide 320 g/ha
In short: as §2

[11] = system: lambsquarters; test: Test Example 4: herbicidal effect by soil treatment (Table 19, symbol O); assay type: in vivo, lambsquarters (Chenopodium album); details: amount of applied herbicide 320 g/ha
In short: as §2

[12] = system: Italian ryegrass; test: Test Example 5: herbicidal effect by foliage application, plastic box (Table 20, symbol K); assay type: in vivo, Italian ryegrass (Lolium multiflorum); details: foliage application, 320 g/ha, three weeks after application
In short: as §1

[13] = system: barnyard grass; test: Test Example 5: herbicidal effect by foliage application, plastic box (Table 20, symbol H); assay type: in vivo, barnyard grass (Echinochloa crus-galli); details: foliage application, 320 g/ha, three weeks after application
In short: as §1

[14] = system: redroot pigweed; test: Test Example 4: herbicidal effect by soil treatment (Table 19, symbol N); assay type: in vivo, redroot pigweed (Amaranthus retroflexus); details: amount of applied herbicide 320 g/ha
In short: as §2

[15] = system: Chinese sprangletop; test: Test Example 3: herbicidal effect by foliage application, Wagner pot (Table 18, symbol D); assay type: in vivo, chinese sprangletop (Leptochloa chinensis); details: amount of applied herbicide 320 g/ha
In short: (§3)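 Plants were sown in alluvial soil held under 0.1–0.5 cm standing water and grown 14 days in a greenhouse at 25–30 °C. An emulsifiable formulation, water-diluted to the set dose, was then sprayed onto the foliage, and effects were scored three weeks later using previously defined criteria.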

[16] = system: southern crabgrass; test: Test Example 5: herbicidal effect by foliage application, plastic box (Table 20, symbol F); assay type: in vivo, southern crabgrass (Digitaria ciliaris); details: foliage application, 320 g/ha, three weeks after application
In short: as §1

[17] = system: false cleavers; test: Test Example 4: herbicidal effect by soil treatment (Table 19, symbol Q); assay type: in vivo, false cleavers (Galium spurium); details: amount of applied herbicide 320 g/ha
Source text: [Test Example 4] Herbicidal Effect Test by Soil Treatment
Sterilized diluvial soil was placed in a plastic box having a length of 21 cm, a width of 13 cm, and a depth of 7 cm. The seeds of each of southern crabgrass, green foxtail, barnyard grass, wild oat, blackgrass, Italian ryegrass, windgrass, velvetleaf, redroot pigweed, lambsquarters, chickweed, false cleavers, persian speedwell, corn, soybean, rice, wheat, beet, and rapeseed were sowed in a spot-like manner and covered with the soil having a thickness of about 1.5 cm. Subsequently, the emulsion agent of the compound of the present invention prepared according to Formulation Example 2 was diluted with water so as to achieve a predetermined herbicide amount, and the diluted emulsion agent was uniformly applied to the surface of the soil with a small-sized spray. The plastic box was placed in a greenhouse at 25° C. to 30° C. for growth of the plants. Three weeks after the herbicide application, the effect of the herbicide on each plant was evaluated according to the criteria of Test Example 1.

[18] = system: green foxtail; test: Test Example 5: herbicidal effect by foliage application, plastic box (Table 20, symbol G); assay type: in vivo, green foxtail (Setaria viridis); details: foliage application, 320 g/ha, three weeks after application
In short: as §1

[19] = system: velvetleaf; test: Test Example 4: herbicidal effect by soil treatment (Table 19, symbol M); assay type: in vivo, velvetleaf (Abutilon theophrasti); details: amount of applied herbicide 320 g/ha
In short: as §2

[20] = system: rice flat sedge; test: Test Example 3: herbicidal effect by foliage application, Wagner pot (Table 18, symbol E); assay type: in vivo, rice flat sedge (Cyperus iria); details: amount of applied herbicide 320 g/ha
In short: as §3

[21] = system: barnyard grass; test: Test Example 4: herbicidal effect by soil treatment (Table 19, symbol H); assay type: in vivo, barnyard grass (Echinochloa crus-galli); details: amount of applied herbicide 320 g/ha
In short: as §2

[22] = system: lambsquarters; test: Test Example 5: herbicidal effect by foliage application, plastic box (Table 20, symbol O); assay type: in vivo, lambsquarters (Chenopodium album); details: foliage application, 320 g/ha, three weeks after application
In short: as §1

[23] = system: southern crabgrass; test: Test Example 4: herbicidal effect by soil treatment (Table 19, symbol F); assay type: in vivo, southern crabgrass (Digitaria ciliaris); details: amount of applied herbicide 320 g/ha
In short: as §2

[24] = system: persian speedwell; test: Test Example 5: herbicidal effect by foliage application, plastic box (Table 20, symbol R); assay type: in vivo, Persian speedwell (Veronica persica); details: foliage application, 320 g/ha, three weeks after application
In short: as §1

[25] = system: barnyard grass; test: Test Example 3: herbicidal effect by foliage application, Wagner pot (Table 18, symbol H); assay type: in vivo, barnyard grass (Echinochloa crus-galli); details: amount of applied herbicide 320 g/ha
In short: as §3

With Cc1nn(C)c(=O)c(-c2c(-c3ccc(F)cc3)sc3cc(Cl)ccc23)c1O [3-031] the “N: redroot pigweed, herbicidal effect grade” value [1] was 5 (Herbicidal rate of 90% or more (almost completely withered)), the “P: chickweed, herbicidal effect grade” value [2] was 5 (Herbicidal rate of 90% or more (almost completely withered)) and the “K: Italian ryegrass, herbicidal effect grade” value [3] was 3 (Herbicidal rate of 40% or more and less than 70%). For the same compound, the “M: velvetleaf, herbicidal effect grade” value [4] was 5 (Herbicidal rate of 90% or more (almost completely withered)), the “I: wild oat, herbicidal effect grade” value [5] was 5 (Herbicidal rate of 90% or more (almost completely withered)) and the “J: blackgrass, herbicidal effect grade” value [6] was 0 (Herbicidal rate of 5% or less (almost no effect)). For the same compound, the “I: wild oat, herbicidal effect grade” value [7] was 1 (Herbicidal rate of 5% or more and less than 20%), the “J: blackgrass, herbicidal effect grade” value [8] was 4 (Herbicidal rate of 70% or more and less than 90%) and the “L: windgrass, herbicidal effect grade” value [9] was 5 (Herbicidal rate of 90% or more (almost completely withered)). The “G: green foxtail, herbicidal effect grade” value [10] was 4 (Herbicidal rate of 70% or more and less than 90%), the “O: lambsquarters, herbicidal effect grade” value [11] was 4 (Herbicidal rate of 70% or more and less than 90%) and the “K: Italian ryegrass, herbicidal effect grade” value [12] was 5 (Herbicidal rate of 90% or more (almost completely withered)). The “H: barnyard grass, herbicidal effect grade” value [13] was 4 (Herbicidal rate of 70% or more and less than 90%), the “N: redroot pigweed, herbicidal effect grade” value [14] was 3 (Herbicidal rate of 40% or more and less than 70%) and the “herbicidal effect on D: Chinese sprangletop” value [15] was 2 (Herbicidal rate of 20% or more and less than 40%). For the same compound, the “F: southern crabgrass, herbicidal effect grade” value [16] was 4 (Herbicidal rate of 70% or more and less than 90%), the “Q: false cleavers, herbicidal effect grade” value [17] was 4 (Herbicidal rate of 70% or more and less than 90%) and the “G: green foxtail, herbicidal effect grade” value [18] was 5 (Herbicidal rate of 90% or more (almost completely withered)). For the same compound, the “M: velvetleaf, herbicidal effect grade” value [19] was 2 (Herbicidal rate of 20% or more and less than 40%), the “herbicidal effect on E: rice flat sedge” value [20] was 3 (Herbicidal rate of 40% or more and less than 70%) and the “H: barnyard grass, herbicidal effect grade” value [21] was 3 (Herbicidal rate of 40% or more and less than 70%). For the same compound, the “O: lambsquarters, herbicidal effect grade” value [22] was 4 (Herbicidal rate of 70% or more and less than 90%), the “F: southern crabgrass, herbicidal effect grade” value [23] was 3 (Herbicidal rate of 40% or more and less than 70%) and the “R: persian speedwell, herbicidal effect grade” value [24] was 5 (Herbicidal rate of 90% or more (almost completely withered)). For the same compound, the “herbicidal effect on H: barnyard grass” value [25] was 5 (Herbicidal rate of 90% or more (almost completely withered)).
